How the values were obtained:
HMGB1 = target: T1, HMGB1 (Mus musculus, UniProt P63158); experiment: NMR 1H-15N HSQC titration with lineshape analysis; STD, waterLOGSY, NOEs; assay type: binding
T1 construct: residues 1–215
T1 sequence (P63158 1-215): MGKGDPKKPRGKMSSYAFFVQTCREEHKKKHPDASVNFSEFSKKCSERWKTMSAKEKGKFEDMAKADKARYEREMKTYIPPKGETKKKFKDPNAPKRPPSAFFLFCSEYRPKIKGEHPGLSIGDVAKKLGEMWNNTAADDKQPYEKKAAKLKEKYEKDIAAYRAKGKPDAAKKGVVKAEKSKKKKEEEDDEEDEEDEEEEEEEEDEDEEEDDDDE

CXCL12 = target: T2, CXCL12 (Homo sapiens, UniProt P48061); experiment: NMR titration of […]-CXCL12 (chemical shift perturbation); assay type: binding
T2 construct: recombinant human CXCL12
T2 sequence (P48061 22-93): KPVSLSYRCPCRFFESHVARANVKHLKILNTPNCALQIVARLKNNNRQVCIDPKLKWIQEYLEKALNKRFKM

With O=C(O)c1cc2ccccc2c(Cc2c(O)c(C(=O)O)cc3ccccc23)c1O [PAM, pamoic acid] as the molecule, how does the Kd (HMGB1) read?
Its Kd is 170 ± 17 µM.

And the Kd (CXCL12)?
The Kd was 66 ± 4 µM.
